# Experimental data published in BindingDB's records for doi:10.7270/Q2X34VWJ (Nmmlsc, 2009).
# Target: Ras-related protein Rab-7a (Canis lupus familiaris, UniProt P18067)
# Experiment: extra analogs blocking nucleotide binding to Rab7 – biochemical, additional analogs, wildtype, multiplex bead flow cytometry, SAR follow-up (AID 2036)
# [1] = inactive by the depositor's call
# Chain of Ras-related protein Rab-7a (P18067 whole entry): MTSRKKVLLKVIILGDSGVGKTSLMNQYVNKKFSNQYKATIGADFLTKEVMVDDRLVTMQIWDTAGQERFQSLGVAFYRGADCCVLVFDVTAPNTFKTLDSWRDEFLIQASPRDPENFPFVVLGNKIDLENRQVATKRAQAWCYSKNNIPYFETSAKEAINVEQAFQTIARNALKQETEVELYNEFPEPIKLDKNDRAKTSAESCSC
Structure (SMILES),EC50 [µM],EC50 [1] [µM]
O=C1Nc2c(F)cccc2C1=C1Nc2ccccc2C1=O,23.8,
O=C(C#Cc1ccccc1)c1ccc([N+](=O)[O-])cc1 [1-(4-nitrophenyl)-3-phenyl-2-propyn-1-one],,30
O=C1NC(=S)N/C1=C1\C(=O)Nc2ccccc21 [(3Z)-3-(5-oxo-2-sulfanylideneimidazolidin-4-ylidene)-1H-indol-2-one],13.4,
O=C1NC(=O)/C(=C2/C(=O)Nc3ccccc32)N1,30,
"COc1cc(-c2c(C#N)c(N)n(S(=O)(=O)c3c(C(C)C)cc(C(C)C)cc3C(C)C)c2C(=O)c2ccccc2)cc(OC)c1OC [2-azanyl-5-(phenylcarbonyl)-4-(3,4,5-trimethoxyphenyl)-1-[2,4,6-tri(propan-2-yl)phenyl]sulfonyl-pyrrole-3-carbonitrile]",,33.2
C[C@@H](C(=O)O)c1cccc(Oc2ccccc2)c1 [calcium;2-(3-phenoxyphenyl)propanoic acid;hydrate],30,
O=C1Nc2c(Br)cccc2/C1=C1/Cc2ccccc2C1=O [(3E)-7-bromo-3-(3-oxo-1H-inden-2-ylidene)-1H-indol-2-one],,30
O=C1Nc2c(Cl)cccc2C1=C1Nc2ccccc2C1=O,0.024,
O=C1N=c2c(F)cccc2=C1c1[nH]c2ccccc2c1NO [7-fluoro-3-[3-(hydroxyamino)-1H-indol-2-yl]-2-indolone],30,
CC(C)Cc1ccc([C@H](C)C(=O)O)cc1 [(S)-2-(4-Isobutyl-phenyl)-propionic acid],,4.78
CSc1ccc(/C=C2/C(C)=C(CC(=O)O)c3cc(F)ccc32)cc1 [{6-Fluoro-2-methyl-3-[1-(4-methylsulfanyl-phenyl)-meth-(E)-ylidene]-3H-inden-1-yl}-acetic acid],,41.2
"CCCCS(=O)(=O)n1c(N)c(C#N)c(-c2cc(OC)c(OC)c(OC)c2)c1C(=O)c1ccccc1 [2-amino-5-benzoyl-1-butylsulfonyl-4-(3,4,5-trimethoxyphenyl)-3-pyrrolecarbonitrile]",,30
COc1ccc(S(=O)(=O)n2c(N)c(C#N)c(-c3ccccc3)c2C(=O)c2ccc(Br)cc2)cc1,,30
N#Cc1c(-c2ccc(Cl)cc2)c(C(=O)c2ccccc2)n(S(=O)(=O)c2ccc([N+](=O)[O-])cc2)c1N [UNM-0000305780],,30
O=C(C#Cc1ccccc1)c1ccccc1[N+](=O)[O-] [UNM-0000306038],,30
COc1ccc(-c2c(C#N)c(N)n(S(C)(=O)=O)c2C(=O)c2ccccc2)cc1Br [2-azanyl-4-(3-bromanyl-4-methoxy-phenyl)-1-methylsulfonyl-5-(phenylcarbonyl)pyrrole-3-carbonitrile],,30
COC(=O)c1ccc(C(=O)C#Cc2ccccc2)cc1 [4-(1-oxo-3-phenylprop-2-ynyl)benzoic acid methyl ester],,30
O=C1N=c2ccc(Br)cc2=C1c1[nH]c2ccccc2c1NO [5-bromanyl-3-[3-(oxidanylamino)-1H-indol-2-yl]indol-2-one],30,
N#Cc1ccc(C(=O)C#Cc2ccccc2)cc1 [4-(3-phenylprop-2-ynoyl)benzenecarbonitrile],,30
CC(C(=O)O)c1cccc(C(=O)c2ccccc2)c1 (stereo not given) [2-(3-benzoylphenyl)propanoic acid],,30
O=C1Nc2ccc(Br)cc2C1=C1Nc2ccccc2C1=O,30,
O=C(C#Cc1ccccc1)c1ccc(Cl)cc1 [UNM-0000306055],,30
COc1ccc(S(=O)(=O)n2c(N)c(C#N)c(-c3cc(Br)c(OC)c(OC)c3)c2C(=O)c2ccccc2)cc1 [UNM-0000305782],,30
O=[N+]([O-])c1ccc(C#Cc2ccccc2)cc1,,30
CC1=C(CC(=O)O)c2cc(F)ccc2/C1=C/c1ccc([S+](C)[O-])cc1 (stereo not given) [UNM-0000306136],,30
O=C(C#Cc1ccccc1)c1cccnc1 [3-phenyl-1-pyridin-3-ylprop-2-yn-1-one],,30
O=C1Nc2ccccc2/C1=C1/Cc2ccccc2C1=O [UNM-0000305763],,30

# More lines, now with the values ahead:
EC50 [µM],EC50 [1] [µM],Structure (SMILES)
,30,O=C1Nc2cccc(Br)c2/C1=C1/Cc2ccccc2C1=O
30,,O=C1N=c2ccccc2=C1c1[nH]c2ccccc2c1NO [3-[3-(hydroxyamino)-1H-indol-2-yl]-2-indolone]
,30,COc1ccc(C(=O)C#Cc2ccccc2)cc1 [1-(4-methoxyphenyl)-3-phenyl-2-propyn-1-one]
,30,O=C(C#Cc1ccccc1)c1ccc(F)cc1 [UNM-0000306059]
,8.24,COc1ccc(S(=O)(=O)n2c(N)c(C#N)c(-c3cncc(Br)c3)c2C(=O)c2ccccc2)cc1 [2-amino-5-benzoyl-4-(5-bromo-3-pyridinyl)-1-(4-methoxyphenyl)sulfonyl-3-pyrrolecarbonitrile]
30,,O=C1N=c2c(Br)cccc2=C1c1[nH]c2ccccc2c1NO [7-bromanyl-3-[3-(oxidanylamino)-1H-indol-2-yl]indol-2-one]
,30,CC(=O)Oc1ccccc1C(=O)O [2-(acetyloxy)benzoic acid]
,30,O=C(C#Cc1ccccc1)c1ccc(OC(F)(F)F)cc1
,30,O=C(C#Cc1ccccc1)c1ccccc1 [UNM-0000306039]
30,,"O=C1Nc2ccccc2/C1=C1/Nc2ccccc2C1=O [2-[(3Z)-2-oxo-2,3-dihydro-1H-indol-3-ylidene]-2,3-dihydro-1H-indol-3-one]"
30,,O=C1N=c2c(Cl)cccc2=C1c1[nH]c2ccccc2c1NO [7-chloro-3-[3-(hydroxyamino)-1H-indol-2-yl]-2-indolone]
,30,COc1ccc2cc(CC(=O)O)ccc2c1 [2-(6-methoxynaphthalen-2-yl)ethanoic acid]
30,,O=C1Nc2c(Br)cccc2C1=C1Nc2ccccc2C1=O
